Experimental findings from patent publication US20060234909A1, “Compositions and methods for increasing drug efficiency” (priority 2003, published 2006) are described below.

Primed or numbered codes have the meaning given here. * marks the point of attachment. 10Ca‑PXL = paclitaxel conjugated at C10 via a carbamate; 3Am‑VBL = vinblastine (VBL) conjugate; 3Am‑VBL″ = vinblastine conjugate; DMAB = not defined here; 3Am = not defined here; Cbz = O=C(OCc1ccccc1)*; PEG(13) = PEG13 linker; Piv = CC(C)(C)C(=O)*; VBL = vinblastine Some results are limits rather than exact numbers.

One assay relates to tubulin. The assay can be described thus: Fluorescence-based tubulin polymerization assay (MPA; enhancement for paclitaxel, inhibition for vinblastine). It is filed as biochemical. A digest of the protocol: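 Tubulin polymerisation was followed by fluorescence (ex 360/em 405 nm) with 1 mg/ml BSA in all assays. For paclitaxel conjugates, glycerol was omitted. Parent drugs and conjugates were tested at 0.75, 1.5, 3 and 10 micromolar final, and values come from the linear range of the dose responses.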

The subject of another assay is HUVEC. As to the kind of experiment: Cytotoxicity assay (monolayer), HUVEC. The note with it: ML (monolayer), read-out: HUVEC (EC50 Ave) ML. In kind it is cell-based.
Assay [1] deals with Normal human foreskin fibroblasts (HFF). Particulars: read-out: HFF (EC50 Ave) ML; HFF, ML (monolayer).
A further assay relates to HT-29 cells. The note with it: read-out: HT29 (EC50 Ave) SA; HT29, SA (soft agar).
The next assay has as its target Akt (Homo sapiens, UniProt P31749). As to the kind of experiment: Akt kinase assay (PKLight ATP utilization, substrate phosphorylation as % of parent peptide). Details: purchased Upstate (Charlottesville, Va.) 14-276. In kind it is biochemical. On the procedure: Another test may involve monitoring the consumption of ATP. For example, ATP concentrations at time 0 or after 4 hour incubation may be monitored by luciferase reaction (PKLight kit obtained from Cambrex Corporation, One Meadowlands Plaza, East Rutherford, N.J. 07073), which generate a luminescence readout in the presence of ATP. Assays are initiated by mixing a kinase and a peptide in the presence of 40 μM ATP. After 4 hour of incubation at 30° C., PKLight reagent is added and mixed well, and luminescence readout measured. The rate of peptide phosphorylation is then directly related to the rate of decrease in the observed luminescence. Based on the first test, linkers of appropriate lengths and peptides with an effective amount of kinase activity which may be expected to be retained in the drug conjugate may be found.
Human Src (#14-326) and Akt (#14-276) kinases were purchased from Upstate (Charlottesville, Va.). Kinase reactions were carried out in 50 μl kinase reaction cocktail (25 mM Tris-HCl, pH 7.5, 5 μM β-glycerophosphate, 2 mM DTT, 0.1 mM Na3VO4, 10 mM MgCl2, 1 mg/ml BSA, […], 0.5 to 1.0 units enzyme). Substrates (peptide or drug-peptide conjugate in […]) were added (25, 50 and 100 μM) and the reaction was incubated for 2-5 hours at 30° C. PKLight reagent (23 μl) (Cambrex BioSciences, Rockland, Me.) was mixed with […] of the above kinase reaction and ATP utilization relative to no substrate and no ATP controls was determined by measuring luminescence with a SpectraMax Gemini EM plate reader (Molecular Devices, Sunnyvale, Calif.). Peptide substrates for Src and Akt have been described. For examples, see Lou et al. Letters in Peptide Science, 2, 289-296 (1995); Lou et al. Bioorganic & Medicinal Chemistry, 4, 677-682 (1996); Alessi et al. FEBS Letters, 399, 333-338 (1996). Substrate phosphorylation potential was determined from the linear portion of the substrate concentration dose response as a percentage of the activity observed with the parent peptide used for drug conjugation.

The subject of a further assay is MCF-7 breast carcinoma. The assay can be described thus: Cytotoxicity assay (monolayer), MCF-7.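 Note: cells treated 72 h with 6-8 compound doses versus DMSO vehicle controls, EC50 fitted by 4-parameter dose-response curves, averaged across all tests and lots.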 It is filed as cell-based. Particulars: MCF7, ML (monolayer); read-out: MCF7 (EC50 Ave) ML.
Assay [2] has as its system HT-29 colorectal carcinoma. The assay can be described thus: Cytotoxicity assay (monolayer), HT-29.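 Note: monolayer cultures tested in triplicate, compound exposure for three days against DMSO vehicle controls, EC50 fitted from dose-response curves and averaged across all tests and lots.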 It is filed as cell-based. The note with it: HT29, ML (monolayer); read-out: HT29 (EC50 Ave) ML.
The test system of a further assay is MCF-7 cells. The note with it: read-out: MCF7 (EC50 Ave) SA; MCF7, SA (soft agar).

Akt, sequence (P31749 whole entry): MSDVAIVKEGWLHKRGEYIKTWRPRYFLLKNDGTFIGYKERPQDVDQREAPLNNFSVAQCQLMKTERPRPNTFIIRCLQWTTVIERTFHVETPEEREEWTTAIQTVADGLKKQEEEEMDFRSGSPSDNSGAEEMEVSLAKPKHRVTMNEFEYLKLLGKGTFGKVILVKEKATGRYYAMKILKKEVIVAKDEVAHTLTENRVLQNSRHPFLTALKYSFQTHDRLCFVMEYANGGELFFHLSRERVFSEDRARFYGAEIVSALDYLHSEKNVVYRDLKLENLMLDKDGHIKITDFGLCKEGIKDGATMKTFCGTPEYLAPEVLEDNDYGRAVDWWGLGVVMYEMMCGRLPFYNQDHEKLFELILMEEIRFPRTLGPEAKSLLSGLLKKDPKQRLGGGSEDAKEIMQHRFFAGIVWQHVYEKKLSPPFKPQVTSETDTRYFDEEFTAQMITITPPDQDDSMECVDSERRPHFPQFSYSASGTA

Consider “BOC-RPRTSSF-PEG(13)-10Ca-PXL (N-BOC; PEG(13) linker; paclitaxel conjugate)”, for which the “Ave. MPA Act.” value in the assay with tubulin is listed as “C (C>80)”. The EC50 was > 100 nM with HUVEC, 20 to 100 nM in assay [1] and > 100 nM in the assay with HT-29 cells. Besides, the “Ave. Akt Kinase Act.” value with Akt is “C (C>40)”.
“CBz-RPRTSSF-PEG(13)-10Ca-PXL x (N-CBz; PEG(13) linker; paclitaxel conjugate; salt)”: the “Ave. MPA Act.” value in the assay with tubulin is on record as “C (C>80)”. The EC50 (in the assay with MCF-7 breast carcinoma; in assay [2]; in the assay with HUVEC; in assay [1]; in the assay with MCF-7 cells; in the assay with HT-29 cells) was > 100 nM in each case. In the assay with Akt, the “Ave. Akt Kinase Act.” value is listed as “C (C>40)”.
Regarding “Pv-GRPRTSSFAEG-PEG(13)-10Ca-PXL (Piv-GRPRTSSFAEG-{PEG(13)-10Ca‑PXL}; also: TFA salt)”, the “Ave. MPA Act.” value with tubulin is “C (C>80)”. The EC50 (in the assay with MCF-7 breast carcinoma; in assay [2]; in the assay with HUVEC; in assay [1]) was > 100 nM each time. The “Ave. Akt Kinase Act.” value in the assay with Akt is recorded as “C (C>40)”.
On to “Ph(C═O)-RPRTSSF-PEG(11)-3Am-VBL (N-benzoyl; PEG(11) linker; vinblastine conjugate)”, for which the “Ave. MPA Act.” value in the assay with tubulin is listed as “C (C>80)”. The EC50 (in the assay on MCF-7 breast carcinoma; in assay [2]; in the assay with HUVEC; in assay [1]) was 20 to 100 nM in each case. Besides, the “Ave. Akt Kinase Act.” value in the assay with Akt is given as “C (C>40)”.
In the case of “CBz-RPRTSSF-PEG(29)-3Am-VBL (N-CBz; PEG(29) linker; vinblastine conjugate)”, the “Ave. MPA Act.” value in the assay on tubulin is recorded as “B (B=50-80)”. The EC50 (in the assay on MCF-7 breast carcinoma; in assay [2]; in the assay with HUVEC; in assay [1]; in the assay with MCF-7 cells) was > 100 nM in each case. Also, the “Ave. Akt Kinase Act.” value with Akt was “C (C>40)”.
Turning to “Ac-GRPRTSSFAEG-3Am-VBL (Ac-GRPRTSSFAEG-{3Am-VBL}; reading uncertain; also: TFA salt, printed as Ac-GRPRTSSFAEG-3Am-VBL)”, the “Ave. MPA Act.” value in the assay with tubulin is “C (C>80)”. Further, the EC50 was 20 to 100 nM in the assay on MCF-7 breast carcinoma, 20 to 100 nM in assay [2], < 20 nM in the assay with HUVEC and 20 to 100 nM in assay [1]. In addition, the “Ave. Akt Kinase Act.” value with Akt was “C (C>40)”.
As for “BOC-RPRTSSF-PEG(11)-3Am-VBL (N-BOC; PEG(11) linker; vinblastine conjugate)”, the “Ave. MPA Act.” value in the assay on tubulin is given as “C (C>80)”. Moreover, the EC50 (in the assay with MCF-7 breast carcinoma; in assay [2]; in the assay with HUVEC; in assay [1]) was 20 to 100 nM each time. Further, the “Ave. Akt Kinase Act.” value with Akt was “C (C>40)”.
For the substance “Pv-GRPRTSSFAE(DMAB)G-3Am-VBL (Piv-GRPRTSSFAE(DMAB)G-{3Am‑VBL″}; not fully specified; reading uncertain)”, the “Ave. MPA Act.” value in the assay on tubulin is given as “C (C>80)”. For the same substance, the EC50 (with MCF-7 breast carcinoma; in assay [2]; in the assay with HUVEC; in assay [1]) was > 100 nM in each case. Also, the “Ave. Akt Kinase Act.” value in the assay with Akt is listed as “C (C>40)”.
Consider “CBz-GRPRTSSFAEG-3Am-VBL (Cbz-GRPRTSSFAEG-{3Am-VBL}; reading uncertain; also: printed as CBz-GRPRTSSFAEG-3Am-VBL)”, for which the “Ave. MPA Act.” value in the assay on tubulin was “C (C>80)”. For the same substance, the EC50 (in the assay with MCF-7 breast carcinoma; in assay [2]; in the assay on HUVEC; in assay [1]) was > 100 nM in each case. For the same substance, the “Ave. Akt Kinase Act.” value with Akt was “C (C>40)”.
For “Pv-GRPRTSSFAEG-3Am-VBL (Piv-GRPRTSSFAEG-{3Am‑VBL}; also: 2 TFA salt)”, in the assay on tubulin, the “Ave. MPA Act.” value was “C (C>80)”. Moreover, the EC50 (in the assay on MCF-7 breast carcinoma; in assay [2]; in the assay on HUVEC; in assay [1]) was > 100 nM throughout. Besides, the “Ave. Akt Kinase Act.” value in the assay with Akt is on record as “C (C>40)”.

The EC50 is the concentration giving half of the maximal effect.
